The values below are quoted from earlier work in patent publication US20100279989A1, “ORAL CONTRACEPTION WITH TRIMEGESTONE” (GRÜNENTHAL GMBH, priority 2005, published 2010).

The test system of this data set is ovulation. To be noted: p.o.

For `C[C@H](O)C(=O)[C@@]1(C)CC[C@H]2[C@@H]3CCC4=CC(=O)CCC4=C3CC[C@@]21C` [trimegestone, 17β-[(S)-2-hydroxypropanoyl]-17α-methyl-estra-4,9-dien-3-one], the ovulation inhibition dose was 0.5 mg per day.
